What was measured:
Format in all cases: in vivo
Heliothis armigera = Heliothis armigera test, spray treatment dripping wet (cotton plants); details: alone; for Kill in % after 7d: Table A1; for Kill in % after 3d: Table A2
Procedure: (§1) To produce a suitable solution, 1 part by weight of formulation is mixed with the stated amount of water and adjuvant and the concentrate is diluted with water to the desired concentration.
Cotton plants (Gossypium hirsutum) are sprayed to runoff point with the desired use concentration and populated with caterpillars of the cotton bollworm (Heliothis armigera) while the leaves are still moist.
(§2) After the desired period of time, the kill in % is determined. 100% means that all larvae have been killed; 0% means that none of the larvae have been killed. The determined kill rates are entered into Colby's formula (see above).

Myzus persicae = Myzus persicae test, spray application dripping wet (bell pepper plants); details: alone; for Kill in % after 3d: Table F1; for Kill in % after 7d: Table F2
Procedure: (§3) Solvent: water Adjuvant: rapeseed oil methyl ester
(§4) To produce a suitable application solution, 1 part by weight of the formulation is mixed with the appropriate amount of water and the adjuvant and the concentrate is diluted with water to the desired concentration.
Bell pepper plants (Capsicum sativum) which are heavily infested by the green peach aphid (Myzus persicae) are sprayed to runoff point with the desired concentration of the application solution.
(§5) After the desired period of time, the kill in % is determined. 100% means that all aphids have been killed; 0% means that none of the aphids have been killed. The determined kill rates are entered into Colby's formula (see sheet 1).

Plutella xylostella = Plutella xylostella test, spray treatment dripping wet (cabbage plants); details: alone; for Kill in % after 7d: Table B1
Procedure: as §1
Cabbage plants (Brassica pekinesis) are sprayed to runoff point with the desired use concentration and populated with larvae of the diamondback moth (Plutella xylostella) while the leaves are still moist.
as §2

Metopolophium dirhodum = Metopolophium dirhodum test, spray application dripping wet (barley plants); details: 100 ppm, alone
Procedure: as §3, §4
Metopolophium dirhodum Test
Barley plants (Hordeum vulgare) which are heavily infested by a cereal aphid (Metopolophium dirhodum) are sprayed to runoff point with the desired concentration of the application solution.
as §5

Spodoptera frugiperda = Spodoptera frugiperda test, spray treatment dripping wet (corn plants); details: Table C2; 100 ppm; alone
Procedure: as §1
Spodoptera frugiperda Test
Corn plants (Zea mais) are sprayed to runoff point with the desired use concentration and populated with caterpillars of the armyworm (Spodoptera frugiperda) while the leaves are still moist.
as §2

Aphis gossypii = Aphis gossypii test, spray application dripping wet (cotton plants); details: alone
Procedure: as §3, §4
Cotton plants (Gossypium herbaceum) which are heavily infested by the cotton aphid (Aphis gossypii) are sprayed to runoff point with the desired concentration of the application solution.
as §5

C=CCN(CC=C)C(=O)C(Cl)Cl [dichlormid, 2,2-dichloro-N,N-di-2-propenylacetamide]
0%: Kill in % after 7d (Heliothis armigera; 100 ppm) | Kill in % after 3d (Heliothis armigera; 100 ppm) | Kill in % after 3d (Myzus persicae; 25 ppm) | Kill in % after 7d (Myzus persicae; 100 ppm) | Kill in % after 3d (Plutella xylostella; Table B2, 100 ppm) | Kill in % after 7d (Metopolophium dirhodum; Table E1) | Kill in % after 7d (Metopolophium dirhodum; Table E2) | Kill in % after 3d (Spodoptera frugiperda) | Kill in % after 7d (Aphis gossypii; Table D1, 100 ppm) | Kill in % after 7d (Aphis gossypii; Table D2, 50 ppm)

Clc1cc(Cl)nc(-c2ccccc2)n1 [fenclorim, 4,6-dichloro-2-phenylpyrimidine]
0%: Kill in % after 3d (Heliothis armigera; 100 ppm) | Kill in % after 3d (Myzus persicae; 25 ppm) | Kill in % after 7d (Myzus persicae; 100 ppm) | Kill in % after 7d (Plutella xylostella; 25 ppm) | Kill in % after 7d (Metopolophium dirhodum; Table E1) | Kill in % after 7d (Metopolophium dirhodum; Table E2) | Kill in % after 3d (Spodoptera frugiperda) | Kill in % after 7d (Aphis gossypii; Table D1, 100 ppm) | Kill in % after 7d (Aphis gossypii; Table D2, 100 ppm)

CC1(C)OC(c2ccco2)CN1C(=O)C(Cl)Cl (stereo not shown) [furilazole, 3-dichloroacetyl-5-(2-furanyl)-2,2-dimethyloxazolidine]
0%: Kill in % after 7d (Heliothis armigera; 25 ppm) | Kill in % after 3d (Heliothis armigera; 50 ppm) | Kill in % after 3d (Myzus persicae; 100 ppm) | Kill in % after 7d (Plutella xylostella; 50 ppm) | Kill in % after 7d (Metopolophium dirhodum; Table E1) | Kill in % after 7d (Metopolophium dirhodum; Table E2) | Kill in % after 3d (Spodoptera frugiperda) | Kill in % after 7d (Aphis gossypii; Table D1, 100 ppm) | Kill in % after 7d (Aphis gossypii; Table D2, 100 ppm)

From US20080221167A1, “Selective Insecticides Based on Haloalkylnicotinic Acid Derivatives, Anthranilic Acid Diamides, or Phthalic Acid Diamides and Safeners” (priority 2004, published 2008)
